What was measured:
Assay in all cases: in vitro antibacterial evaluation, MIC by broth dilution
Format in all cases: cell-based
Enterococcus sp. = settings: broth dilution, 18 hours at 35° C.
Method: (§1) Methods for in vitro Antibacterial Evaluation (Table 1)
(§2) The minimum inhibitory concentration (MIC), the lowest concentration of the antibiotic which inhibits growth of the test organism, is determined by the broth dilution method using Muller-Hinton II […] (Baltimore Biological Laboratories) following the recommendations of the National Committee for Clinical Laboratory Standards [Methods for dilution antimicrobial susceptibility tests for bacteria that grow aerobically, approved standard M7-A2, National Committee for Clinical Laboratory Standards, Villanova, Pa.].
(§3) An inoculum level of 5×10^5 CFU/mL, and a range of antibiotic concentrations (64-0.06 μg/mL) is used. […] The test organisms include a spectrum of Gram-positive bacteria comprised of Staphylococcus sp., Streptococcus sp. and Enterococcus sp. These organisms include recent clinical isolates that are resistant to methicillin, penicillin and/or vancomycin.

Staphylococcus sp. = settings: broth dilution, 18 hours at 35° C.; for MIC Staphylococcus aureus (ATCC 29213): strain ATCC 29213; for MIC Staphylococcus aureus (GC 1131): strain GC 1131; for MIC Staphylococcus aureus (GC 3051): strain GC 3051; for MIC Staphylococcus aureus (GC 3053): strain GC 3053; for MIC Staphylococcus aureus (GC 4541): strain GC 4541; for MIC Staphylococcus aureus (GC 4542): strain GC 4542; for MIC Staphylococcus aureus-SMITH (GC 4543): strain GC 4543; for MIC Staphylococcus aureus (GC 4544): strain GC 4544; for MIC Staphylococcus aureus (GC 4545): strain GC 4545; for MIC Staphylococcus haemolyticus (GC 4546): strain GC 4546; for MIC Coagulase Negative Staphylococcus (GC 4547): strain GC 4547; for MIC Coagulase Negative Staphylococcus (GC 4548): strain GC 4548; for MIC Coagulase Negative Staphylococcus (GC 4549): strain GC 4549; for MIC Coagulase Negative Staphylococcus (GC 4551): strain GC 4551; for MIC Coagulase Negative Staphylococcus (GC 6257): strain GC 6257
Method: as §1, §2, §3

Streptococcus sp. = settings: broth dilution, 18 hours at 35° C.
Method: as §1, §2, §3

Escherichia coli = settings: 18 hours at 35° C.
In short: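 Broth dilution MIC per NCCLS M7-A2 in Mueller-Hinton II medium, inoculum 5×10^5 CFU/mL, antibiotic range 64-0.06 μg/mL. MIC taken as lowest concentration inhibiting growth.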

CC(c1ccccc1)C1NC(=O)CNC(=O)C(CO)NC(=O)C(C(O)C2CNC(=N)N2C2OC(CO)C(O)C(O)C2O)NC(=O)C(C(O)C2CNC(=N)N2)NC(=O)C(Cc2ccc3oc(-c4ccc(N(C)C)cc4)nc3c2)NC1=O (stereo not drawn) [Example 29, Cyclo[3-[2-[4-(dimethylamino)phenyl]-1,3-benzoxazol-5-yl]alanyl-3-(2-iminoimidazolidin-4-yl)-seryl-3-(3-hexopyranosyl-2-iminoimidazolidin-4-yl)serylserylglycyl-β-methylphenyl-alanyl]]
8 µg/mL: MIC Enterococcus faecium (GC 4557) (Enterococcus sp.; strain GC 4557) | MIC Staphylococcus aureus (ATCC 29213) (Staphylococcus sp.) | MIC Staphylococcus aureus (GC 1131) (Staphylococcus sp.) | MIC Staphylococcus aureus (GC 3051) (Staphylococcus sp.) | MIC Staphylococcus aureus (GC 3053) (Staphylococcus sp.) | MIC Staphylococcus aureus (GC 4541) (Staphylococcus sp.) | MIC Staphylococcus aureus (GC 4542) (Staphylococcus sp.) | MIC Staphylococcus aureus-SMITH (GC 4543) (Staphylococcus sp.) | MIC Staphylococcus aureus (GC 4544) (Staphylococcus sp.) | MIC Staphylococcus aureus (GC 4545) (Staphylococcus sp.) | MIC Coagulase Negative Staphylococcus (GC 4551) (Staphylococcus sp.)
64 µg/mL: MIC Enterococcus faecalis (GC 3059) (Enterococcus sp.; strain GC 3059) | MIC Enterococcus faecalis (GC 4552) (Enterococcus sp.; strain GC 4552) | MIC Enterococcus faecium (GC 4556) (Enterococcus sp.; strain GC 4556)
4 µg/mL: MIC Staphylococcus haemolyticus (GC 4546) (Staphylococcus sp.) | MIC Coagulase Negative Staphylococcus (GC 4547) (Staphylococcus sp.) | MIC Coagulase Negative Staphylococcus (GC 4548) (Staphylococcus sp.) | MIC Coagulase Negative Staphylococcus (GC 6257) (Staphylococcus sp.) | MIC Escherichia coli (GC 4560) (Escherichia coli; strain GC 4560, broth dilution)
2 µg/mL: MIC Coagulase Negative Staphylococcus (GC 4549) (Staphylococcus sp.)
16 µg/mL: MIC Enterococcus faecium (GC 2243) (Enterococcus sp.; strain GC 2243) | MIC Enterococcus faecalis (GC 4553) (Enterococcus sp.; strain GC 4553) | MIC Enterococcus avium (GC 4558) (Enterococcus sp.; strain GC 4558) | MIC Streptococcus pyogenes (GC 4563) (Streptococcus sp.; strain GC 4563) | MIC Escherichia coli (ATCC 25922) (Escherichia coli; strain ATCC 25922, broth dilution) | MIC Escherichia coli (GC 4559) (Escherichia coli; strain GC 4559, broth dilution)
32 µg/mL: MIC Enterococcus faecalis (ATCC 29212) (Enterococcus sp.; strain ATCC 29212) | MIC Enterococcus faecalis (GC 2242) (Enterococcus sp.; strain GC 2242) | MIC Enterococcus faecalis (GC 2691) (Enterococcus sp.; strain GC 2691) | MIC Enterococcus faecalis (GC 4554) (Enterococcus sp.; strain GC 4554) | MIC Enterococcus faecalis (GC 6189) (Enterococcus sp.; strain GC 6189) | MIC Streptococcus pneumoniae (ATCC 6301) (Streptococcus sp.; strain ATCC 6301) | MIC Streptococcus pneumoniae (GC 1894) (Streptococcus sp.; strain GC 1894) | MIC Streptococcus agalactiae (GC 4564) (Streptococcus sp.; strain GC 4564) | MIC Streptococcus pneumoniae (GC 4565) (Streptococcus sp.; strain GC 4565)

CC(C)CC(=O)OC1C(O)C(OC2C(CO)OC(Oc3ccc(CC4NC(=O)C(C(C)c5ccccc5)NC(=O)CNC(=O)C(CO)NC(=O)C(C(O)C5CNC(=N)N5C5OC(CO)C(O)C(O)C5O)NC(=O)C(C(O)C5CNC(=N)N5)NC4=O)cc3)C(O)C2O)OC2COC3(OC21)C1CC2CC(C1)CC3C2 (stereo not drawn) [Example 218]
0.5 µg/mL: MIC Streptococcus pyogenes (GC 4563) (Streptococcus sp.) | MIC Streptococcus pyogenes (GC 4563) (Streptococcus sp.; inoculum 5×10^5 CFU/mL, strain GC 4563)
<0.06 µg/mL: MIC Streptococcus pneumoniae (GC 1894) (Streptococcus sp.) | MIC Streptococcus pneumoniae (GC 1894) (Streptococcus sp.; inoculum 5×10^5 CFU/mL, strain GC 1894)
0.12 µg/mL: MIC Streptococcus pneumoniae (ATCC 6301) (Streptococcus sp.) | MIC Streptococcus pneumoniae (GC 4565) (Streptococcus sp.) | MIC Streptococcus pneumoniae (ATCC 6301) (Streptococcus sp.; inoculum 5×10^5 CFU/mL, strain ATCC 6301) | MIC Streptococcus pneumoniae (GC 4565) (Streptococcus sp.; inoculum 5×10^5 CFU/mL, strain GC 4565)
0.25 µg/mL: MIC Streptococcus agalactiae (GC 4564) (Streptococcus sp.) | MIC Streptococcus agalactiae (GC 4564) (Streptococcus sp.; inoculum 5×10^5 CFU/mL, strain GC 4564)
64 µg/mL: MIC Escherichia coli (ATCC 25922) (Escherichia coli)
4 µg/mL: MIC Enterococcus avium (GC 4558) (Enterococcus sp.) | MIC Enterococcus faecalis (ATCC 29212) (Enterococcus sp.) | MIC Enterococcus faecalis (GC 2242) (Enterococcus sp.) | MIC Enterococcus faecalis (GC 2691) (Enterococcus sp.) | MIC Enterococcus faecalis (GC 3059) (Enterococcus sp.) | MIC Enterococcus faecalis (GC 4552) (Enterococcus sp.) | MIC Enterococcus faecalis (GC 4553) (Enterococcus sp.) | MIC Enterococcus faecalis (GC 4554) (Enterococcus sp.) | MIC Enterococcus faecalis (GC 6189) (Enterococcus sp.) | MIC Enterococcus faecium (GC 2243) (Enterococcus sp.) | MIC Enterococcus faecium (GC 4556) (Enterococcus sp.) | MIC Enterococcus faecium (GC 4557) (Enterococcus sp.) | MIC Enterococcus faecalis (ATCC 29212) (Enterococcus sp.; inoculum 5×10^5 CFU/mL, strain ATCC 29212) | MIC Enterococcus faecalis (GC 2242) (Enterococcus sp.; inoculum 5×10^5 CFU/mL, strain GC 2242) | MIC Enterococcus faecium (GC 2243) (Enterococcus sp.; inoculum 5×10^5 CFU/mL, strain GC 2243) | MIC Enterococcus faecalis (GC 2691) (Enterococcus sp.; inoculum 5×10^5 CFU/mL, strain GC 2691) | MIC Enterococcus faecalis (GC 3059) (Enterococcus sp.; inoculum 5×10^5 CFU/mL, strain GC 3059) | MIC Enterococcus faecalis (GC 4552) (Enterococcus sp.; inoculum 5×10^5 CFU/mL, strain GC 4552) | MIC Enterococcus faecalis (GC 4553) (Enterococcus sp.; inoculum 5×10^5 CFU/mL, strain GC 4553) | MIC Enterococcus faecalis (GC 4554) (Enterococcus sp.; inoculum 5×10^5 CFU/mL, strain GC 4554) | MIC Enterococcus faecium (GC 4556) (Enterococcus sp.; inoculum 5×10^5 CFU/mL, strain GC 4556) | MIC Enterococcus faecium (GC 4557) (Enterococcus sp.; inoculum 5×10^5 CFU/mL, strain GC 4557) | MIC Enterococcus avium (GC 4558) (Enterococcus sp.; inoculum 5×10^5 CFU/mL, strain GC 4558) | MIC Enterococcus faecalis (GC 6189) (Enterococcus sp.; inoculum 5×10^5 CFU/mL, strain GC 6189) | MIC Staphylococcus aureus (ATCC 29213) (Staphylococcus sp.) | MIC Staphylococcus aureus (GC 1131) (Staphylococcus sp.) | MIC Staphylococcus aureus (GC 3051) (Staphylococcus sp.) | MIC Staphylococcus aureus (GC 3053) (Staphylococcus sp.) | MIC Staphylococcus aureus (GC 4541) (Staphylococcus sp.) | MIC Staphylococcus aureus (GC 4542) (Staphylococcus sp.) | MIC Staphylococcus aureus-SMITH (GC 4543) (Staphylococcus sp.) | MIC Staphylococcus aureus (GC 4544) (Staphylococcus sp.) | MIC Staphylococcus aureus (GC 4545) (Staphylococcus sp.) | MIC Staphylococcus haemolyticus (GC 4546) (Staphylococcus sp.) | MIC Coagulase Negative Staphylococcus (GC 4547) (Staphylococcus sp.) | MIC Coagulase Negative Staphylococcus (GC 4548) (Staphylococcus sp.) | MIC Coagulase Negative Staphylococcus (GC 4549) (Staphylococcus sp.) | MIC Coagulase Negative Staphylococcus (GC 6257) (Staphylococcus sp.)
>64 µg/mL: MIC Escherichia coli (GC 4559) (Escherichia coli)
8 µg/mL: MIC Coagulase Negative Staphylococcus (GC 4551) (Staphylococcus sp.) | MIC Escherichia coli (GC 4560) (Escherichia coli)
